Row | SMILES | melting point
1 | O=C(O)c1ccc(-c2ncc(-c3ccc(Cl)cc3)s2)cc1 | > 300 °C
2 | CC(C)C[C@H](NC(=O)OCc1ccccc1)C(=O)N[C@@H](Cc1ccccc1)C(=O)CSCCN(C)C | 67 to 69 °C
3 | COc1ccc(-c2oc3cc(C)c(C)cc3c2-c2ccc(OC)cc2)cc1 | 153 °C
4 | CCCCc1nc(Cl)c(C=O)n1Cc1ccc(-c2nnn(C(c3ccccc3)(c3ccccc3)c3ccccc3)n2)cc1 | 154 to 157 °C
5 | Nc1cc(I)c(I)cc1N | 135 to 136 °C
6 | CC(C)C1C(=O)C(c2ccc(S(C)(=O)=O)cc2)=C1c1ccccc1 (stereo not drawn) | 98 °C
7 | CCC(=O)N1CCCSC1=C[N+](=O)[O-] | 84 to 86 °C
8 | Cc1nc(C)c(Cl)c(NCc2nccc(SCCCCSCc3ccncc3)c2C)n1 | 104 to 106 °C
9 | O=C(O)Cc1ccc(-n2cc(Br)cn2)cc1 | 187 °C
10 | CN1CCC2(CC1)c1ccccc1Sc1c(O)cccc12 | 180 to 182 °C
11 | CC(C)(C)OC(=O)NCCCON=C(c1ccccc1)c1cc2ccncc2[nH]1 | 52 to 58 °C
12 | CCCCC(=O)c1cn(C(c2ccccc2)(c2ccccc2)c2ccccc2)cn1 | 115 to 118 °C
13 | O=Cc1ccc(-c2ccc(Cl)cc2)cc1 | 108 to 112 °C
14 | Cc1oc(-c2ccccc2)nc1COc1cccc(COc2cc(Cl)ccc2C(=O)O)c1 | 168 °C
15 | COC(=O)c1c([N+](=O)[O-])cccc1S(=O)(=O)N(CCO)CCO | 92 to 93 °C
16 | CCOCCNC(=O)n1cc(F)c(=O)[nH]c1=O | 134 to 135 °C
17 | OCc1cc(I)cc(I)c1I | 156 to 159 °C
18 | CC(=O)NCCn1ccc2ncnc(Nc3ccc(Oc4cccc5sncc45)c(Br)c3)c21 | 132 to 135 °C
19 | CSCc1cc([N+](=O)[O-])ccc1N1C(=O)c2ccc(Cl)cc2C1=O | 112 to 115 °C
20 | COc1ccc(N2C(=O)CN(C(C)C)C2=O)c(F)c1 | 88 to 90 °C
21 | CCCc1nc2c(N)nc3cc(OCCN(CCOc4ccc5c(c4)nc(N)c4nc(CCC)sc45)C(N)=O)ccc3c2s1 | 213 to 216 °C
22 | Fc1ccc(C(=Cc2ccccc2)C(F)(F)F)cc1 | 43 to 45 °C
23 | CC1(C)COC(c2cc(F)c(F)cc2F)=N1 | 53 to 54 °C
24 | CCCn1c(C)c(C(C)=O)c(N)c1-c1ccccc1 | 113 to 115 °C
25 | CN(C)S(=O)(=O)c1ccc(N)cc1C(F)(F)F | 140 to 142 °C
26 | Cc1ccc(S(=O)(=O)OCC2Cc3cccc(-c4cccc(Cl)c4)c3O2)cc1 (stereo not drawn) | 101 to 103 °C
27 | CC(c1ccccc1)N(C=O)CC#N (single isomer, unassigned; (+)) | 78.9 °C

Row | SMILES | melting point
28 | COC(=O)C1=C(C)NC(C)=C(C(=O)OCCOC(=O)c2ccc(NC(C)=O)cc2)C1c1cccc([N+](=O)[O-])c1 (stereo not drawn) | 190 to 193 °C
29 | CCOC(=S)c1ccc2sc(CCl)c(C)c2c1 | 95 to 96 °C
30 | O=C(NC(=O)c1c(F)cccc1F)Nc1cc(Cl)cc(C(F)(F)F)c1F | 187 to 189 °C
31 | CN1Cc2ccccc2P1(=O)c1ccccc1 (stereo not drawn) | 129 to 130 °C
32 | CN(C)CCNc1ccc(NCCN(C)C)c2c1C(=O)c1ccc(O)c(O)c1C2=O | 133 to 135 °C
33 | OC(CCn1ccnc1)c1ccc(Br)cc1 (stereo not drawn) | 104 to 110 °C
34 | CN(C)C=C(C=O)OCCO | 148 to 150 °C
35 | CCN1C=C(C(=O)OC)C(=O)CC1c1ccc(OC)c(OC)c1 (stereo not drawn) | 134 to 135 °C
36 | Cc1cc(OCc2ccccc2)cc(OCc2cccc(OCc3ccc4ccccc4n3)c2)c1C(=O)O | 146 to 149 °C
37 | CNC(=O)CCCCCN(C)S(=O)(=O)c1ccc(Cl)c(COc2cccc3ccc(C)nc23)c1Cl | 110 to 112 °C
38 | CNC(=O)C(Cc1ccc(OC)cc1)NC(=O)CC(S)C(CC(C)C)C(N)=O (stereo not drawn) | 221 to 225 °C
39 | CCC(=O)OCc1nc(-c2ccc(OC)c(OC)c2)c2cc(OC)c(OC)cc2c1CC | 125 to 127 °C
40 | CC(C)NC(=O)C(F)(F)C(F)(F)F | 54 to 56 °C
41 | C=C(c1cc(F)ccc1OCc1ccc(Cl)cc1Cl)n1ccnc1 | 118 to 120 °C
42 | Cc1cccc(-c2cc(Cl)nc3ccc(C(=O)c4ccc(Cl)cc4)cc23)c1 | 199 °C
43 | CCCNC(=O)C1(CCCCSc2ccccc2)c2ccccc2-c2ccccc21 | 50 to 53 °C
44 | CC(C)(S)CNC(=O)CCCC(=O)O | 101 to 104 °C
45 | CN(CCO)Cn1nc(-c2ccncc2)n(-c2ccccc2)c1=S | 173 to 174 °C
46 | Cc1cccc(C)c1NC(=O)CN1CCCC1=O | 153 to 154 °C
47 | C=C(OCCCC)c1ccc(NC(C)=O)nc1 | 55 to 58 °C
48 | CCOCOCCCOn1cnc2c(=O)[nH]c(N)nc21 | 242 to 245 °C
49 | Cc1ccc(S(=O)(=O)NC(=O)Nc2c(Br)cc(Br)cc2Br)cc1 | 230 °C
50 | CC(C)CCOc1cccc2oc(C(=O)O)cc(=O)c12 | 179 to 180 °C
51 | CC(C)c1ccccc1-n1c(=O)[nH]c2c(C(N)=O)nc(-c3ccc(-n4ccnc4)cc3)nc21 | 232 °C
52 | CCN(C)C(=O)C(Cc1ccc(C#N)cc1)NC(=O)C(Cc1ccc(OC)cc1)S(=O)(=O)Nc1ccc(Cl)c(Cl)c1 (stereo not drawn) | 192 °C
53 | CCc1noc(-c2ncn(-c3cccc(Oc4ccc(Cl)cc4)c3)c2COC)n1 | 68 to 70 °C
54 | COc1cccc(Sc2c(O)cc(-c3ccccc3)oc2=O)c1 | 130 to 131 °C

Results, then the molecule that gave them:

Row | melting point | SMILES
55 | 277 to 279 °C | CCCCn1c(=O)c2c(NC)n[nH]c2n(Cc2ccc([N+](=O)[O-])cc2)c1=O
56 | 95.5 to 97.7 °C | CC(C)NC1CCn2c(CCc3ccccc3)nc3cccc1c32 (stereo not drawn)
57 | 132 to 133 °C | O=c1c2cnc(-c3ccccc3)nc2sn1CCc1ccccn1
58 | 81 to 82 °C | COc1cccc(Cc2ccc(N)c(C#N)c2)c1
59 | 91 to 92 °C | CCCCc1nc(C(=O)CCC)c(C#N)[nH]1
60 | 204 to 206 °C | NC(=O)OCCn1cc(C(=O)O)c(=O)c2cc(F)c(N3CCNCC3)c(F)c21
61 | 194 to 196 °C | COCOc1cccc2c(=O)[nH]c(C3CCN(C)CC3)cc12
62 | 213 to 215 °C | O=C1CC2(CCCCC2)CC(=O)N1c1ccncc1
63 | 138 °C | CC(CN1CCCC1)N1c2ccccc2Sc2ccc(C(=O)NCCC(C)(C)C)cc21 (racemic)
64 | 202 °C | O=[N+]([O-])C=C1NCCN1Cc1cc(Br)no1
65 | 213 to 215 °C | Cc1nc2c(OCc3ccccc3)cc(CO)cn2c1C
66 | 22 to 25 °C | COc1cccc2c1CCCC2N (stereo not drawn)
67 | 158 to 159 °C | O=C(C1=C(O)C(=O)N(C2CC2)C1)c1ccc(Cc2ccc(F)cc2)o1
68 | 54 to 56 °C | Ic1cccc2c1CCOC2
69 | 108 to 109 °C | CN(C)CCNC(=O)C(Sc1nc2cc(Cl)ccc2s1)c1ccccc1 (stereo not drawn)
70 | 180 °C | COc1ccc(C2OC(=O)N3CC(=O)CCC23)cc1OC (stereo not drawn)
71 | 196 to 198 °C | Cc1cc(C=O)ccc1C(=O)O
72 | 102 to 103 °C | NS(=O)(=O)c1cc2c(s1)CCCC2O (stereo not drawn)
73 | 127 to 128 °C | COc1ccc(-c2ncn(C3CCCCO3)c2-c2ccc(OC)cc2)cc1 (stereo not drawn)
74 | 184 to 185 °C | O=C(NCc1ccccc1)Nc1nnc(-c2ccc(CN3CCCCCC3)s2)o1
75 | 157 to 160 °C | C=CCn1c(NCCOc2ccccc2)nc(N2CCc3ccccc3CC2)c(C#N)c1=O
76 | 93.5 to 94 °C | C[Si](C)(CCSCCCNC(=O)n1cc(F)c(=O)[nH]c1=O)c1ccccc1
77 | 214 to 216 °C | O=C(O)c1ccc(N(CC2CC2)c2cc3c4c(c2)CCCC4CCC3)cc1
78 | 202 to 204 °C | C[C@@H]([C@@H](O)c1ccc(O)cc1)N1CCC(O)(c2ccccc2)CC1 (relative stereo)
79 | 110 to 111 °C | O=C1CCc2ccc(OCCCCN3CCCN(c4cccc(Cl)c4Cl)CC3)nc2N1

Row | melting point | SMILES
80 | 128 to 129 °C | COC(=O)Cn1c(SCc2nccc(SCCN3CCOCC3)c2C)nc2ccccc21
81 | 118 to 120 °C | C=C(C)Cn1c(C)c(C)c2cnnc(OCc3ccc(F)cc3)c21
82 | 275 °C | CNC(=O)Nc1snc(S(C)(=O)=O)c1C#N
83 | 298 to 301 °C | O=C(NC1CCCCC1)c1cc2ccncc2[nH]1
84 | 193 to 195 °C | O=S(=O)(c1cc(-c2ccncc2)sc1-c1ccncc1)N1CCCC1
85 | > 250 °C | O=C1Nc2cccc(O)c2C12COc1cc3c(cc12)OCCO3 (stereo not drawn)
86 | 222 to 223 °C | COC(=O)c1n[nH]c(=O)c2ccc(Cl)cc12
87 | 99.5 to 102 °C | O=c1c(Cl)nsnc1Sc1ccccc1
88 | 196 to 197 °C | N#Cc1n[nH]c2nc(N3CCCNCC3)ccc12
89 | 87 to 90 °C | COC=C(C(=O)OC)N(C)c1cc(-c2cccc(OC)c2)ncn1
90 | 191 to 193 °C | Nc1ccc2c(c1)C(=O)CC1(CCN(CCc3ccc4nonc4c3)CC1)O2
91 | 158 to 160 °C | O=C(OCCN1CCOC1=O)c1ccccc1Nc1ccnc2c(C(F)(F)F)cccc12
92 | 192 to 193 °C | CS(=O)(=O)N1CCC(Nc2nc(CCC(F)(F)F)nc(Nc3ccc(F)c(Cl)c3)n2)CC1
93 | 119 to 120 °C | CC(C)c1nn(-c2ccc(C(F)(F)F)cn2)cc1CO
94 | 125 to 127 °C | Clc1ccc(CN2CC=C(C=Cc3ccsc3)CC2)cc1
95 | 143 to 146 °C | N#Cc1ccccc1N1CCN(CNC(=O)c2cccc(Cl)c2)CC1
96 | 198 to 199 °C | O=C1N=CC(OCC2CC2)(C(F)(F)F)c2cc(F)ccc2N1 (stereo not drawn)
97 | 157 to 159 °C | O=[N+]([O-])c1cn2c(n1)O[C@@H](COc1ccc3nc(N4CCN(Cc5ccc(OC(F)(F)F)cc5)CC4)sc3c1)CC2
98 | 161 °C | CC(Cn1c(=S)[nH]c2ccccc2c1=O)N1CCC(C(=O)c2ccc(F)cc2)CC1 (stereo not drawn)
99 | 75 to 77 °C | CCCCCc1c(-c2ccc3c(Br)c(O)ccc3c2)oc2ccccc12
100 | 90 to 94 °C | Cc1c(SCCN2CCc3ccccc3C2)ccnc1CSc1nc2ccccc2[nH]1
101 | 209 to 211 °C | O=C(O)C1CCN2c3ccc(Cl)cc3Oc3ccccc3C2C1 (stereo not drawn)
102 | 125 to 126 °C | CNC(=O)CC1CN=C(c2cc3cc(Oc4ccc(S(C)(=O)=O)cc4)cc(OC)c3[nH]2)S1 (stereo not drawn)
103 | 170 to 172 °C | CCOC(=O)C(C#N)=CNc1ccc(C)cn1

— a melting point compilation (Tetko et al.; mined from patent text by program, amines drawn as free bases though some values may be those of a salt)
